# Assay results: patent US20090264528A1, “SERINE PALMITOYLCOA TRANSFERASE (SPT) INHIBITION BY MYRIOCIN OR GENETIC DEFICIENCY DECREASES CHOLESTEROL ABSORPTION” (The Research Foundation of State University of New York, priority 2008, published 2009)
# Experiments:
# Type in all cases: in vivo, mouse
# [1] = test system: ABCA1 mRNA; assay: Real-time PCR, ABCA1 mRNA; conditions: for decrease of ABCA1 mRNA levels: liver, P<0.05; for decrease of ABCA1 mRNA levels compared with controls: small intestine, P<0.01
# Method: FIGS. 9A-F depict that Mouse small intestine and liver NPC1L1, ABCG5/G8, and ABCA1 mRNA measurements. NPC1L1, ABCG5/G8, and ABCA1 mRNA levels were measured by real-time PCR as described in “Methods and Materials.” FIG. 9A, jejunum from WT mice with or without myriocin treatment; FIG. 9B, jejunum from apoE KO mice with or without myriocin treatment; FIG. 9C, jejunum from WT and Sptlc1^+/− mice; FIG. 9D, liver from WT mice with or without myriocin treatment; FIG. 9E, liver from apoE KO mice with or without myriocin treatment; FIG. 9F, liver from WT and Sptlc1^+/− mice. Values are mean±SD, n=5. *P<0.01.
# Real-time PCR examined genes' expression: Mice were sacrificed by cervical dislocation. Jejunum was dissected, and total RNA extracted with Trizol (Invitrogen). cDNA was synthesized with an Invitrogen kit. Polymerase chain reaction (PCR) was performed on a total volume of 20 microl with the sybergreen kit from Applied Biosystems, 18S being used as an internal control. The amplification program consisted of activation at 95 degrees C. for 10 minutes, followed by 40 amplification cycles: 95 degrees C. for 15 seconds, 60 degrees C. for 1 minute. Each sample was triplicated. The genes' relative expression was expressed as mean±SD. The primers are located in the below table which lists the name, sequence, and sequence identification number.
# For further elucidation of the possible mechanisms for cholesterol absorption reduction in the SPT-deficient small intestine, NPC1L1, ABCG5/G8, and ABCA1 mRNA levels in myriocin-treated WT, apoE KO, and Sptlc1^+/− mice, as well as in controls were measured. […] Moreover, intestinal MTP activity was not influenced by SPT deficiency (data not shown). Also, the liver mRNA levels were measured to find that myriocin treatment or Sptlc1 deficiency has no influence on ABCG5/G8 mRNA levels […]. […] NPC1L1 mRNA in WT or Sptlc1^+/− livers were not detected (data not shown).
# [2] = test system: NPC1L1; assay: Western blot of small intestine homogenates, NPC1L1; conditions: WT and apoE KO mice, compared with nontreated animals
# Method: FIG. 8 depicts that SPT deficiency decreased NPC1L1 and ABCA1, and increased ABCG5 in mouse small intestine. Tissue homogenates were prepared as described in Methods, and equal amounts of homogenates from each mouse were pooled in each group (n=5). A total of 50 microg pooled sample from each group was immunoblotted with antibodies against NPC1L1, ABCA1, and ABCG5. Immunoblots of beta (β)-actin were used as a loading control.
# Preparation and Western blot analysis of small intestine homogenates: A total of 50-100 mg of small intestine sample was homogenized and lysed proteins were immunoblotted, as previously described, (3) with a polyclonal rabbit antihuman NPC1L1 antiserum 69B, a polyclonal rabbit antimouse ABCG5 antiserum, a polyclonal antimouse ABCA1 antibody, and a monoclonal mouse anti-(beta)β-actin antibody.
# Next, Western blot measurements of NPC1L1 and ABCG5/G8 were completed, where the measurement were located in apical membranes of the enterocytes. […] Also, ABCA1 was measured, which is located in the basal membranes of the enterocytes and is involved in cholesterol secretion.
# [3] = test system: triglyceride absorption; assay: [3H]triolein-derived counts in plasma (triglyceride absorption); conditions: myriocin treated animals (WT, apoE KO), within 24 hours
# Method: (§1) FIGS. 5A-I depict several graphs that illustrate that SPT deficient mice absorbed less cholesterol. Mice (n=6, 10-12 weeks old) were fasted for 5 hours and gavaged with 0.1 microCi [^14C]cholesterol and 0.2 microCi [^3H]sitostanol with 0.5 mg unlabeled cholesterol dissolved in 15 microl of olive oil. Feces were collected after 24 hours and lipids were extracted for counting (FIGS. 5A, 5D, and 5G, cholesterol absorption, WT vs WT/myriocin; apoE KO vs apoE KO/myriocin; WT vs Sptlc1^+/−, respectively). Blood was collected during the 24 hour period (Panels B, E, and H, [^14C]cholesterol in blood, WT vs WT/myriocin; apoE KO vs apoE KO/myriocin; WT vs Sptlc1^+/−, respectively). To test specificity, the mice were gavaged with 0.2 microCi [^3H]triolein together with 0.5 mg/ml cold cholesterol. Blood was collected during the 24 hour period (FIGS. 5C, 5F, and 5I, [^3H] glycerolipids in blood, WT versus WT/myriocin; apoE KO versus apoE KO/myriocin; WT versus Sptlc1^+/−, respectively). Value is mean±SD. *P<0.01.
# To investigate whether the effect of SPT deficiency was specific to cholesterol, experimental mice were fed with […] [^3H]triolein instead of [^14C]cholesterol, and blood was collected at different time points within 24 hours.
# [4] = test system: cholesterol absorption; assay: Absorption of [14C]cholesterol after a single gavage (intestine, liver, bile, plasma); conditions: 24 hours after single gavage, mean ± SD, n=5
# Method: Cholesterol absorption studies: A classical fecal dual-isotope ratio method was used for the cholesterol absorption study. Briefly, a mixture of [^14C]-labeled (0.1 microCi) and unlabeled cholesterol (0.5 mg) and [^3H]sitostanol (0.2 microCi) in 15 microl of olive oil was fed to mice (10-12 weeks old). Feces were collected for 24 hours. The cholesterol absorption ratio was calculated as: % absorption={1−[fecal(^14C/^3H)]/administered(^14C/^3H)}×100. In some cases, mice were sacrificed, plasma collected, and radioactivity counted. Small intestines (from duodenum to ileum) were washed and cut into 2 cm segments. Each of these, as well as a part of the liver, were digested and radioactivity counted individually.
# Next, the amounts of [^14C]cholesterol present in the intestine and those transported to plasma, liver, and bile in 24 hours were measured after a single bolus of radiolabeled cholesterol.
# [5] = test system: cholesterol absorption; assay: Cholesterol absorption, fecal dual-isotope ratio method; conditions: single gavage, feces 24 hours
# Method: as §1, with “Value is mean±SD. *P<0.01.” left out
# Cholesterol absorption studies: A classical fecal dual-isotope ratio method was used for the cholesterol absorption study. […] The cholesterol absorption ratio was calculated as: % absorption={1−[fecal(^14C/^3H)]/administered(^14C/^3H)}×100. In some cases, mice were sacrificed, plasma collected, and radioactivity counted. […] Each of these, as well as a part of the liver, were digested and radioactivity counted individually. […]
# [6] = test system: cholesterol absorption; assay: Blood [14C]-cholesterol within 24 hours after a single gavage
# Method: as §1
# This confirmed that there was defective cholesterol absorption in these animals.
smiles,measurement,setting,value
"CCCCCCC(=O)CCCCCC/C=C/C[C@@H](O)[C@H](O)[C@@](N)(CO)C(=O)O [Myriocin, myriocin]",decrease of ABCA1 mRNA levels,[1]; WT mice,20%
same,decrease of ABCA1 mRNA levels,[1]; apoE KO mice,18%
same,decrease of ABCA1 mRNA levels compared with controls,[1]; WT mice,48%
same,decrease of ABCA1 mRNA levels compared with controls,[1]; apoE KO mice,39%
same,NPC1L1 protein mass in small intestine,[2],significantly decreased
same,[3H]triolein-derived counts in the plasma vs controls,[3],No significant changes
same,[14C]cholesterol in Bile,[4]; ApoE KO mice,2284 ± 521 dpm/ml
same,[14C]cholesterol in Intestine,[4]; ApoE KO mice,4158 ± 499 dpm/g
same,[14C]cholesterol in Liver,[4]; ApoE KO mice,3337 ± 649 dpm/g
same,[14C]cholesterol in Plasma,[4]; ApoE KO mice,1350 ± 142 dpm/ml
same,[14C]cholesterol in Bile,[4]; WT mice,2108 ± 394 dpm/ml
same,[14C]cholesterol in Intestine,[4]; WT mice,5237 ± 478 dpm/g
same,[14C]cholesterol in Liver,[4]; WT mice,4131 ± 575 dpm/g
same,[14C]cholesterol in Plasma,[4]; WT mice,1734 ± 390 dpm/ml
same,reduction in cholesterol absorption compared with controls,"[5]; myriocin-treated WT mice, P<0.01",36%
same,reduction in cholesterol absorption compared with controls,"[5]; myriocin-treated apoE KO mice, P<0.001",50%
same,[14C]-cholesterol in the circulation vs controls,[6]; myriocin-treated WT mice,significantly less
same,[14C]-cholesterol in the circulation vs controls,[6]; myriocin-treated apoE KO mice,significantly less
